Series [1] in a line: Uptake of systemic 14C-ZA in CaS/HA pellet in abdominal muscle pouch. In kind it is in vivo, rats. On the procedure: 2-weeks after surgery, the animals were injected with ^14C labelled ZA (0.1 mg/kg, specific radioactivity: 7.1 MBq/mL) via the systemic route (sub-cutaneous) and the radioactivity was measured in 1) the CaS/HA pellet placed in the muscle and 2) surrounding muscle 24-h later.

Series [2] can be described thus: Accretion and long-term availability of 14C-ZA in CaS/HA in femoral neck canal. The format is in vivo, osteoporotic rats. Particulars: systemic dose 0.1 mg/kg 2 weeks post implantation. The procedure: Methods: The CaS/HA biomaterial was implanted in the femoral neck canal of 6 osteoporotic rats. The animals (n=3) then received a systemic (sub-cutaneous) dose of ^14C-ZA (0.1 mg/kg, specific radioactivity: 7.1 MBq/mL) 2-weeks post implantation. The animals were sacrificed 6 months post implantation (5 months and 2 weeks post injection). Results: The uptake of ^14C-ZA in the animals that were given a systemic dose of ^14C-ZA was verified using scintillation counting. Results are illustrated in FIG. 6.

Series [3] is described as follows: Re-loading of apatite particles by repeated 14C-ZA injection. In kind it is in vivo, rats. To be noted: injections day 14 and day 27, average. On the procedure: Methods: We used 25 mg of micro sized pure apatite particles (size: 10 μm) and 25 mg of nano sized apatite particles (size: <200 nm) and placed them bilaterally in the abdominal muscle pouch of rats. Two different time points were used. At time point 1 (day 14), all animals received the same amount of the radioactive ^14C-ZA. […] All animals were sacrificed a day later and the uptake of the drug measured in the apatite particles of two different sizes using scintillation counting.

Series [4] can be described thus: Apatite particle size dependence of 14C-ZA uptake in muscle pouch. The format is in vivo, rats. Particulars: 25 mg particles, 0.1 mg/kg ZA 2 weeks post implantation, 1 day post injection. On the procedure:
Method: We used 25 mg of micro sized pure apatite particles (size: 10 μm) and 25 mg of nano sized apatite particles (size: <200 nm) and placed them bilaterally in the abdominal muscle pouch of rats. Each animal then received a systemic dose of ^14C-ZA 2-weeks post implantation (Injection dose: 0.1 mg/kg ZA, drug/rat: 40 μg, specific radioactivity: 7.1 MBq/mL, ZA concentration: 1 mg/mL). The rats were sacrificed 1-day post injection and the radioactivity in micro and nano apatite particles was measured using scintillation counting.

For series [5], the system named is S. aureus. In words: Example 18: zone of inhibition of materials harvested from rat muscle pouch. Particulars: Cerament G / Cerament V, 2 weeks implanted, no systemic antibiotic. In kind it is cell-based. From the text:
Small pellets of pristine hydroxyapatite (HA) of nano or micro size (wherein the micro-HA particles are about 10 μm, wherein the nano-HA particles are less than 200 nm and a majority of the nano-HA particles about 50 nm) were implanted in the abdominal muscle pouch of rats (Group 1). In another set of animals, pellets of calcium sulphate and micro-sized HA (Cerament) containing gentamycin (Cerament G) or vancomycin (Cerament V) were implanted in the muscle pouch of rats (Group 2).
[…] Tibial cortical bone samples were also collected as positive control and muscle tissue from the abdomen was collected as a negative control.
In group 2, no antibiotics were administered systemically, and the implants only contained locally added antibiotics at the time of administration.
All samples were snap frozen in liquid nitrogen and pulverized using a mortar and pestle. Pulverized specimens were then placed in a silicon mold, casted as a pellet and placed in a bacterial culture plate containing S. aureus, a common pathogen found in bone and joint infections.

Series [6] can be described thus: Long term elution of gentamycin from HA/Sulphate carrier. The format is physicochemical.
A short description of series [7]: Tetracycline uptake in CaS/HA pellet in muscle pouch, fluorescence microscopy. To be noted: 1 day later. On the procedure:
Methods: A pellet of CaS/HA biomaterial (5 mm diameter×2 mm height) was placed in an abdominal muscle pouch of rats. […] 1-day later, the animals were sacrificed and the pellet of CaS/HA as well as surrounding muscle was harvested, fixed in formalin (4%) and embedded in paraffin. The tissue was then cut using a microtome to a thickness of 5 μm. The sections were de-paraffinized using xylene, rehydrated using decreasing ethanol gradient and cleared in water. Finally, the sections were analyzed on a fluorescence microscope (Zeiss, Japan Filter: FITC, Gain: 0, Exposure: 150 ms).

The subject of series [8] is S. aureus ATCC 25923. Description: In-vivo biomodulation of HA pellets by systemic TET, disk diffusion assay. In kind it is cell-based. Particulars: TET 25 mg/rat i.p. for 3 days, 24 h after 3rd injection. On the procedure: METHODS: (1) In-vitro binding experiment: Nano-HA powder of <200 nm particle size, with a majority of the particles being in size of about 50 nm (100 mg; Fluidnova) was measured in 2 mL microcentrifuge tubes in triplicates and 1 mL of TET solution (4 μg/mL) was added. After vortex mixing, tubes were kept on a rotator at 180 RPM for 1, 6, and 12 h. At desired time points, the tubes were removed and centrifuged at 14000 RPM for 2 min. The supernatant was discarded and sediments were then “washed” 4 times by adding 1 mL of saline (NaCl 0.9%) followed by vortex mixing and centrifuging at 14000 RPM for 2 min. After 4 washing-cycles, supernatants were discarded and 60 μL of hyaluronic acid (HAD, 1 mg/mL) was added to the sediments and mixed. Pastes were then transferred to an elastic mold (Ø=4.7 mm) and placed at −20° C. for an hour to freeze nano-HA paste into pellet. Frozen pellets were removed from the molds and brought to room temperature. […] After overnight incubation at 37° C., the diameter of the zone of inhibition (ZOI) around the pellets were measured.
(2) In-vivo biomodulation: Pellets of nano-/micro-HA were prepared by mixing 100 mg of nano-/micro-HA (Fluidnova, wherein the micro-HA particles are about 10 μm, and wherein the nano-HA particles are less than 200 nm and a majority of the nano-HA particles about 50 nm) with 60 and 80 μL of HAD, (1 mg/mL) respectively. […]

The nature of series [9]: In-vitro doxorubicin release from CaS/HA pellets. In kind it is physicochemical. The procedure:
Methods: Pellets of CaS/HA biomaterial were made by mixing 10 μg Doxorubicin/pellet. Each pellet containing 10 μg Doxorubicin was immersed in 1 mL PBS at two different pH (5 and 7.4). At each time point, old PBS was frozen until further analysis and the tube refilled with 1 mL fresh PBS. The experiment was conducted for a period of 4-weeks. Supernatants were analyzed on a spectro fluorimeter (excitation: 485 nm and emission: 580 nm).

Series [10] in a line: In-vitro doxorubicin binding to apatite particles. To be noted: 10 μg Doxorubicin in 1 mL PBS, 48 h. On the procedure: Methods: 5 mg, 10 mg and 20 mg apatite particles were suspended in 1 mL PBS containing 10 μg Doxorubicin and homogenously distributed in the suspension using sonication for 5 min. The specimens were rotated gently on a rotational shaker for 48 h (speed: 50 rpm). After 48 h, the specimens were centrifuged to obtain a pellet of the apatite particles and the supernatant was collected. The apatite particles were then resuspended in 1 mL of PBS, thoroughly pipetted to wash the unbound drug. At this point, the particles were centrifuged again and the supernatant was collected. The washing was repeated once again using the same protocol and the supernatant from the original time and 2 supernatants from the washing steps were measured for fluorescence on a spectro fluorimeter (excitation: 485 nm and emission: 580 nm). Bound doxorubicin to the apatite particles was also detected using fluorescence microscopy. Unbound free drug was used as a control.

Series [11] in a line: In-vivo doxorubicin binding to nano apatite particles in muscle pouch, fluorescence microscopy. Also noted: species or system rats. On the procedure: Methods: 25 mg of nano sized apatite particles (size <200 nm) were implanted in the abdominal muscle pouch of rats. Animals were injected with 5 mg/kg doxorubicin re-suspended in PBS 2-weeks post implantation and the animals were sacrificed 1 day later. The specimens were harvested from the implanted muscle pouch and as a positive control, the site of doxorubicin systemic injection (skin under the neck) was also taken for histology. The samples were embedded in paraffin and cut to a thickness of 5 μm. The samples were then analyzed on a fluorescent microscope (excitation: 485 nm and emission: 580 nm).

A short description of series [12]: In-vitro release of isoniazid from CaS/HA pellets in PBS. Particulars: day 1, PBS. In kind it is physicochemical. The procedure: Method: Isoniazid was mixed to CaS/HA biomaterial and equal volume pellets were created. Each pellet was then placed in a 1.5 mL tube and filled with 1 mL phosphate buffered saline (PBS). At each time point, the old PBS was removed and frozen until the day of analysis. The tube was refilled with fresh PBS (1 mL). All samples were analyzed spectrophotometrically and the concentration of the released antibiotic was calculated from a standard curve of isoniazid made in PBS.

As to `O=P(O)(O)C(O)(Cn1ccnc1)P(=O)(O)O` [^14C-ZA], in series [1] (0.1 mg/kg sub-cutaneous 2 weeks after surgery, measured 24 h later), the “uptake of 14C-ZA in CaS/HA biomaterial” value is given as “obvious”. In series [1] (0.1 mg/kg sub-cutaneous, 24 h later), the “radioactivity in muscle surrounding the implant” value is on record as “very low radioactive counts”. For the same compound, the “time the drug stays in the apatite material” value in series [2] is listed as “at least 6 months”. Besides, in [3] (micro-particles (10 μm)), the “increase of counts of 14C-ZA after 2 injections compared to one injection” value stood at 72%. The “higher counts of 14C-ZA after 2 injections compared to one injection” value in [3] (nano-apatite particles (<200 nm)) is recorded as 77%. For the same compound, in series [4], the “uptake of 14C-ZA, micro (10 μm) vs nano (<200 nm) apatite particles” value is “higher in micro-apatite particles compared to nano-apatite particles in 4 out of 5 specimens”.

With Gentamycin, the “inhibition of bacterial growth by CaS/HA with locally added antibiotic” value in series [5] is “could not inhibit bacterial growth”. In addition, in series [6] (at one month), the “release of gentamycin from biphasic HA/Sulphate carrier” value is on record as “complete release”. The “time by which the Apatite/Sulphate material releases gentamycin” value in series [6] (trend line, elution over 2 months) is reported as at most 4 weeks.

As to `CN[C@H](CC(C)C)C(=O)N[C@H]1C(=O)N[C@@H](CC(N)=O)C(=O)N[C@H]2C(=O)N[C@H]3C(=O)N[C@H](C(=O)N[C@H](C(=O)O)c4cc(O)cc(O)c4-c4cc3ccc4O)[C@H](O)c3ccc(c(Cl)c3)Oc3cc2cc(c3O[C@@H]2O[C@H](CO)[C@@H](O)[C@H](O)[C@H]2O[C@H]2C[C@](C)(N)[C@H](O)[C@H](C)O2)Oc2ccc(cc2Cl)[C@H]1O` [Vancomycin], in [5], the “inhibition of bacterial growth by CaS/HA with locally added antibiotic” value is “could not inhibit bacterial growth”.

For the compound `CN(C)[C@@H]1C(O)=C(C(N)=O)C(=O)[C@@]2(O)C(O)=C3C(=O)c4c(O)cccc4[C@@](C)(O)[C@H]3C[C@@H]12` [tetracycline], the “uptake of tetracycline in CaS/HA biomaterial” value in series [7] (25 mg/kg sub-cutaneous 2 weeks after surgery) is recorded as “clear uptake”. In addition, the “uptake of tetracycline in surrounding muscle” value in series [7] (25 mg/kg sub-cutaneous) was “no uptake”. In series [8], the “ZOI of kidney samples” value was 14-17 mm and the “ZOI of liver samples” value is reported as 10-12 mm.

For `COc1cccc2c1C(=O)c1c(O)c3c(c(O)c1C2=O)C[C@@](O)(C(=O)CO)C[C@@H]3O[C@H]1C[C@H](N)[C@H](O)[C@H](C)O1` [doxorubicin], the “release at later time points” value in series [9] (after day 3, up to 4 weeks) is reported as “No further release”. In addition, in series [9] (day 1 and 3, PBS pH 5 and 7.4, 10 μg/pellet), the “burst release of the drug from CaS/HA” value was 20-35%. The “release in low pH group compared with pH 7.4” value in series [9] (pH 5 vs 7.4) was “slightly higher release”. In addition, the “drug bound to apatite particles” value is recorded as “approximately 10%” in series [10] (5 mg apatite particles), 30% in [10] (10 mg apatite particles) and “approximately 75%” in [10] (20 mg apatite particles). For the same compound, in [11] (5 mg/kg, 1 day after injection, positive control site), the “fluorescence at the site of injection” value is recorded as “Strong fluorescent staining”. The “fluorescence in muscle 1 cm distal from the implant” value in series [11] (5 mg/kg, 1 day later) is recorded as “did not show any fluorescence”. Also, the “fluorescence in apatite particles and area immediately around” value in [11] (25 mg nano apatite, 5 mg/kg 2 weeks post implantation, 1 day later) is on record as “relatively weak but positive signal”.

Take `NNC(=O)c1ccncc1` [Isoniazid]: the “antibiotic released from CaS/HA” value in [12] is recorded as “approximately 60%”.

For the compound `O=P(O)(O)C(O)(Cn1ccnc1)P(=O)(O)O` [ZA, Zoledronic Acid], the “time the drug stays in the apatite material” value in [2] (listed as zoledronic acid) was 6 months.

For the origin of these results see patent US12544335B2, “Treatment approach by targeted delivery of bioactive molecules” (priority 2018, dated 2026).
